{
  "source": "paper PMC6208908",
  "about": "“Field template-based design and biological evaluation of new sphingosine kinase 1 inhibitors” (Breast Cancer Research and Treatment, 2018)",
  "key": {"recombinant SK1": {"target": "recombinant SK1 (Homo sapiens, UniProt Q9NYA1)", "sequence (Q9NYA1 whole entry)": "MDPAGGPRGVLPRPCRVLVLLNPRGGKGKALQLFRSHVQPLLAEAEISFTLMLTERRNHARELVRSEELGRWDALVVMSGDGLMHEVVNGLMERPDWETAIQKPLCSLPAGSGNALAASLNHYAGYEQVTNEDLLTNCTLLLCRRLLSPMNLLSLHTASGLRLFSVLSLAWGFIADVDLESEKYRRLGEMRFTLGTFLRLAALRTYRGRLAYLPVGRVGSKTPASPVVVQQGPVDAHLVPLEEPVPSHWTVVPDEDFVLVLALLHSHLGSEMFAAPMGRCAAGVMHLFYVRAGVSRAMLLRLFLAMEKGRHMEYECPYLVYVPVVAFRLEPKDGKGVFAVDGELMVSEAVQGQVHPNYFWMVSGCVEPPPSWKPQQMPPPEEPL", "assay": "SK1 activity assay, cell-free (recombinant SK1 extract, radiolabelling)", "type": "biochemical", "description": "SK assay was performed using radiolabeling as previously described, in conditions favouring SK1 or SK2 activity as required.\nThe synthesised compounds were then screened for SK1 inhibition. Compounds SK-A to SK-F and SKI-II (commercial inhibitor of SK used as positive control with reported IC50 0.5 µM [14]) at 1 µM were incubated in the presence of recombinant SK1 extract (in excess), 1 µM of ATP, and exogenous 1 µM sphingosine for 1 h followed by measurement of SK1 activity.\nFig. 2 Inhibition of sphingosine kinase 1 in cell-free extract and in vitro. a 1 µM of compounds SK-A to SK-F and SKI-II (commercial inhibitor of SK used as a positive control) were incubated in the presence of recombinant SK1 extract (in excess), 1 µM of ATP, and 1 µM exogenous sphingosine for 1 h. b MDA-MB-231 cells were incubated with 1 µM of compounds SK-A to SK-F and SKI-II for 6 h. SK1 activity was measured as described in materials and methods. Columns, means of three independent experiments normalised to vehicle; bars, SEM. (ns, non-significant; *p < 0.05; **p < 0.01)\nSK1 activity was determined in the presence of triton X-100 and SK2 activity was measured in the presence of high salt concentrations, conditions that favour SK1 and SK2, respectively. […] Km for SK1 was 6.97 ± 1.20 µM, Vmax 98 ± 4 µM/min/mg protein and Ki for SK-F 0.46 ± 0.1 µM. […] Some SK inhibitors such as SKI-II were previously shown to induce proteasomal degradation of SK1 [48, 49]."}, "SK1 mRNA": {"test_system": "SK1 mRNA", "assay": "SK1 mRNA expression by qRT-PCR in MDA-MB-231 cells", "type": "cell-based, human", "details": "1, 2, 5 and 10 µM, 24 h", "description": "Isolation of total RNA from MDA-MB-231 cells was performed using the RNeasy Mini kit (Qiagen, Valencia, CA, USA) as per manufacturer’s instructions. RNA quantity and purity were measured using a NanoDrop ND-1000 Spectrophotometer (Thermo Fisher Scientific, Loughborough, UK). Reverse transcription was performed using precision nanoScript™ reverse transcription kit (PrimerDesign Ltd, Southampton, UK). qRT-PCR was done as already described. Ct values were exported and analysed using qbase software (Biogazelle NV, Zwijnaarde, Belgium).\nFig. 3 Effect of compounds SK-A to SK-F on SK1 mRNA levels. MDA-MB-231 cells were incubated with 1, 2, 5 and 10 µM of compounds SK-A to SK-F for 24 h. SK1 mRNA expression was measured by qRT-PCR. Columns, means of three independent experiments normalised to control; bars, SEM. (*p < 0.05; **p < 0.01)"}},
  "note": "“Also recorded” adds a separate entry of the source.",
  "data": [
    {"smiles": "CCCCCCCCc1ccc(NC(=O)c2ccccc2)cc1", "note": "[SK-F]", "values": [
      {"measurement": "inhibition of SK1 activity in cell-free settings", "setting": "recombinant SK1; 1 µM compound, recombinant SK1 extract in excess, 1 µM ATP, 1 µM sphingosine, 1 h", "result": "most potent inhibitor of SK1 activity; also recorded: statistically significant inhibition"},
      {"measurement": "IC50", "setting": "recombinant SK1; Figure S7, read-out: IC50 for purified enzyme (SK1 activity dose response)", "result": 920, "unit": "nM"},
      {"measurement": "mode of SK1 inhibition", "setting": "recombinant SK1; Lineweaver-Burk plot, increasing sphingosine (Figure S8A)", "result": "competitive inhibitor"},
      {"measurement": "Ki", "setting": "recombinant SK1; recombinant SK1, increasing sphingosine, triton X-100, Lineweaver-Burk", "result": "460 ± 100", "unit": "nM"},
      {"measurement": "effect on SK1 mRNA expression", "setting": "SK1 mRNA", "result": "did not elicit any changes"}
    ]}
  ]
}
